Assay results reported in patent publication US20060014643A1, “Combinations of aryloxyphenoxypropionates and safeners and their use for increasing weed control” (BAYER CROPSCIENCE GMBH, priority 2002, published 2006).

Assays:
Format in all cases: in vivo
Setaria lutescens = assay: Post-emergence weed control in spring wheat (field trial); settings: visual scoring 4 weeks after treatment vs untreated, rate g a.i./ha: (A1) 112, (A3) 1680, (B1) 28, mixtures 112 + 28 and 1680 + 28, 300 l water/ha
Experimental: (§1) Spring wheat was grown outdoors on plots under natural outdoor conditions, and seeds of typical harmful plants were laid out. Treatment with a mixture of a (hetero)aryloxyphenoxypropionate herbicide and the safener mefenpyr-diethyl using standard formulations of the active ingredients at an application rate of 300 l water per hectare was carried out after the harmful plants had emerged and the spring wheat was in the growth stage between 3 and 5 leaves for the plants. The effect of the composition was assessed 4 weeks after treatment by scoring visually in comparison with untreated controls.

Alopecurus myosuroides = assay: Post-emergence weed control in winter wheat (field trial); settings: visual scoring 112 days after treatment vs untreated, rate g a.i./ha: (A5) 37.3, (B1) 10, (A5)+(B1) 37.3 + 10, 300 l water/ha
Experimental: (§2) Winter wheat was grown outdoors on plots under natural outdoor conditions, and seeds of typical harmful plants were laid out. […] The effect of the composition was assessed 112 days after treatment by scoring visually in comparison with untreated controls.

[1] = test system: Triticum aestivum (winter wheat); assay: Phytotoxicity (crop damage) to winter wheat (field trial); settings: winter wheat at 3-5 leaves, visual scoring 112 days after treatment, rate g a.i./ha: (A5) 37.3, (B1) 10, (A5)+(B1) 37.3 + 10
Experimental: as §2

[2] = test system: Triticum aestivum (spring wheat); assay: Phytotoxicity (crop damage) to spring wheat (field trial); settings: spring wheat at 3-5 leaves, visual scoring 4 weeks after treatment, rate g a.i./ha: (A1) 112, (A3) 1680, (B1) 28, mixtures 112 + 28 and 1680 + 28
Experimental: as §1

| SMILES | Weed control (%) of SETLU (Setaria lutescens) [%] | Weed control (%) of ALOMY (Alopecurus myosuroides) [%] | Phytotox (%) of TRZAW [1] [%] | Phytotox (%) of TRZAS [2] [%] |
| --- | --- | --- | --- | --- |
| CCOC(=O)C1=NN(c2ccc(Cl)cc2Cl)C(C)(C(=O)OCC)C1 (stereo not shown) [(B1), ethyl 1-(2,4-dichlorophenyl)-5-(ethoxycarbonyl)-5-methyl-2-pyrazoline-3-carboxylate] | 0 | 0 | 0 | 0 |
| CC(Oc1ccc(Oc2ccc(Cl)cc2Cl)cc1)C(=O)O (racemic) [(A3), (RS)-2-[4-(2,4-dichlorophenoxy)phenoxy]propionic acid] | 45 | – | – | 12 |
| CCOC(=O)[C@@H](C)Oc1ccc(Oc2nc3ccc(Cl)cc3o2)cc1 [(A5), ethyl (R)-2-[4-(6-chloro-1,3-benzoxazol-2-yloxy)phenoxy]propionate] | – | 69 | 10 | – |
| C#CCOC(=O)[C@@H](C)Oc1ccc(Oc2ncc(Cl)cc2F)cc1 [(A1), prop-2-ynyl (R)-2-[4-(5-chloro-3-fluoropyridin-2-yloxy)phenoxy]propionate] | 68 | – | – | 20 |
